Measured values as given in US20060084615A1, “Puerarin derivatives and their medical uses” (priority 2004, published 2006).

Experiments:
[1] = tested on: myocardial ischemic rats induced by posterior pituitary injection; assay: Acute myocardial ischemia induced by posterior pituitary extract injection, ECG T wave variation; type: in vivo, SD rats; conditions: for Amplitude of T wave: i.g. 5 days plus day 6, X ± SD, n = 10; for Effect against myocardial ischemia in rats induced by posterior pituitary injection: doses 0.8 g/kg puerarin, 1.12 g/kg 4ac, 1.20 g/kg 5ac, 1.28 g/kg 6ac (equivalent to 0.8 g/kg puerarin)
Procedure: Puerarin was purchased from Beijing Union Pharmaceutical Factory (PRC). Puerarin derivatives 4ac, 5ac and 6ac were supplied by The Hong Kong Polytechnic University. The puerarin was dissolved in 1:1 of PEG400 and sterilized distilled water to make 0.8 g/kg body weight, 10 ml/kg body weight solutions for i.g. feeding.
Puerarin derivative 4ac was dissolved in 1:1 of PEG400 and sterilized distilled water to make 1.12 g/kg, 10 ml/kg solution for intra-gastro (i.g.) feeding. Puerarin derivative 5ac was dissolved in 1:1 of PEG400 and sterilized distilled water to make 1.20 g/kg, 10 ml/kg solution for i.g. feeding. Puerarin derivative 6ac was dissolved in 1:1 of PEG400 and sterilized distilled water to make 1.28 g/kg, 10 ml/kg solution for ig feeding. The concentrations of each solution were selected such that 0.8 g/kg of equivalent puerarin will be administered to each animal.
Propranolol hydrochloride at 10 mg/tablet, was from the Shantou Jinshi Pharmaceuticals (PRC, batch no: 020802). Propranolol hydrochloride is a drug prescribed for myocardial ischemia. It is expected to decrease the T wave elevation in ECG during myocardial ischemia. The drug was dissolved in sterilized distilled water to make a 0.2 mg/ml, 10 ml/kg solution for i.g. feeding.
Sixty SPF grade SD rats weighing 200±20 g of both sexes were grouped evenly into six groups according to their weight and sex, and fed i.g. according to the following protocol: • a) Normal: distilled water 10 ml/kg; • b) Positive control: propranolol hydrochloride […], 10 ml/kg; • c) Puerarin solution: puerarin 0.8 g/kg, 10 ml/kg; • d) Puerarin derivative 4ac solution: 4ac 1.12 g/kg, 10 ml/kg; • e) Puerarin derivative 5ac solution: 5ac 1.20 g/kg, 10 ml/kg; • f) Puerarin derivative 6ac solution: 6ac 1.28 g/kg, 10 ml/kg.
The rats were administered the respective treatments for five consecutive days. On the sixth day, one hour after the administration of the treatment, the rats were anesthetized with 3% pentobarbital sodium at a dose of 40 mg/kg i.p. Two terminal leads were connected to the rats to record the normal electrocardiograph (ECG).
When the ECG reading became steady, 1 u/kg of posterior pituitary extract injection (obtained from the Nanjing Xintian Biochemical Pharmaceuticals Company Ltd; batch no 020601) was given intraveneously at the tail vein. Posterior pituitary extract induces acute myocardial ischemia. On ECG, the extract causes the T wave to elevate, flatten and sometimes invert. It also elevates the ST segment and lengthens the PR and QT intervals.
The ECG was recorded immediately for 30 minutes. The variations in T wave were calculated and analyzed statistically.

[2] = in vivo
Procedure: Agilent 1100 HPLC, DAD diode, HP1100 chromatography workstation and Agilent XDB-C18 column (250 mm×4.6 mm D, 5 μm) were used. The pre-column is Agilent XDB-C18 column (12.5 mm×4.6 mm D, 5 μm). Gradient elution was carried according to Table 1 below: […]
Sprague-Dawley (SD) rats weighing 180±20 g, both male and female were provided by the Laboratory Animal Centre of the Guangzhou Traditional Chinese Medicine (TCM) University.
Two hundred and sixty SD rats were randomly divided into 20 groups with 13 rats in each group. The rats were fasted for one day before the test.
Puerarin, 4ac, 5ac and 6ac was dissolved in sterilized water to produce suspension of final dosage of 400 mg/kg, 560 mg/kg, 600 mg/kg and 640 mg/kg, 10 ml/kg and administered orally to the rats.
At t=10, 20, 30, 45, 60, 90, 120 min, 2 h, 4 h, 6 h, 7 h, 8 h and 12 h after administration, 3 ml of blood was collected from the femoral vein of each animal and kept in a centrifuge tube at room temperature for 0.5 h. The blood was centrifuged at 3000 r/min for 15 min and the serum was taken for analysis.
Serum (0.5 ml) was added with 0.2 ml methanol and mixed with a vortex mixer for 1 min. The mixture was then centrifuged at 3000 r/min for 15 min. The supernatant was dried by nitrogen gas flow and the residue was dissolved in 0.2 ml methanol. The mixture was again centrifuged at 10000 r/min for 10 min and the supernatant subjected to HPLC analysis.
The samples were treated, applied and as stated in section 2.2, and the serum concentration of each compound was calculated by the one-point external standard method. The calculated data were processed using the 3P97 pharmacokinetics statistics software supplied by the Mathematics Committee of the China Pharmacology Association.

[3] = 5 s after posterior pituitary injection
[4] = 15 s after posterior pituitary injection
[5] = 30 s after posterior pituitary injection
[6] = 2 min after posterior pituitary injection
[7] = 5 min after posterior pituitary injection
[8] = 10 min after posterior pituitary injection
[9] = oral suspension, SD rats, serum puerarin by HPLC, puerarin 400, 4ac 560, 5ac 600, 6ac 640 mg/kg

| Structure (SMILES) | Amplitude of T wave [1, 3] [μV] | Amplitude of T wave [1, 4] [μV] | Amplitude of T wave [1, 5] [μV] | Amplitude of T wave [1, 6] [μV] | Amplitude of T wave [1, 7] [μV] | Amplitude of T wave [1, 8] [μV] | Pharmacokinetic compartment model fitted (3P97 software) ([2]; rat, in vivo, po) | AUC(0-∞) = area under concentration-time curve ([2]; rat, in vivo, po, 640 mg/kg) | CL = total body clearance ([2]; rat, in vivo, po, 640 mg/kg) [mg/kg/min/µg/mL] | Effect against myocardial ischemia in rats induced by posterior pituitary injection [1] | Pharmacokinetic compartment model fitted (3P97 software) ([2]; oral, SD rats) | further results |
| --- | --- | --- | --- | --- | --- | --- | --- | --- | --- | --- | --- | --- |
| CC(C)NCC(O)COc1cccc2ccccc12.Cl (stereo not shown) [+ve control, Propranolol hydrochloride, reference compound] | 16.11 ± 5.30 | 18.51 ± 9.26 | 22.10 ± 11.23 | 30.41 ± 11.58 | 26.62 ± 10.99 | 22.09 ± 11.31 |  |  |  |  |  |  |
| CC(=O)OCC1OC(c2c(O)ccc3c(=O)c(-c4ccc(O)cc4)coc23)C(OC(C)=O)C(OC(C)=O)C1OC(C)=O (stereo not shown) [Compound 4ac, 2″,3″,4″,6″-0-tetraacetylpuerarin] | 15.09 ± 7.62 | 23.23 ± 10.69 | 35.40 ± 10.93 | 36.51 ± 16.02 | 25.60 ± 14.23 | 25.41 ± 10.21 | one-compartment open model | 6104.81 ± 275.29 (μg/ml)min | 0.1030 ± 0.0163 | effective |  | C(max) relative to that of puerarin ([2]; both, Sprague-Dawley, rat, in vivo, po): 1.90 folds; AUC compared with puerarin (t test) ([2]; rat, in vivo, po): significantly greater; AUC relative to that of puerarin ([2]; rat, in vivo, po): 2.24 folds; Bioavailability compared with puerarin ([2]; rat, in vivo, po): higher than puerarin and other derivatives |
| CC(=O)OCC1OC(c2c(OC(C)=O)ccc3c(=O)c(-c4ccc(O)cc4)coc23)C(OC(C)=O)C(OC(C)=O)C1OC(C)=O (stereo not shown) [Compound 5ac, 7,2″,3″,4″,6″-0-pentaacetylpuerarin] | 19.09 ± 6.20 | 29.42 ± 9.39 | 37.61 ± 13.43 | 40.11 ± 16.04 | 24.50 ± 13.63 | 24.39 ± 14.28 | two-compartment open model | 4566.95 ± 762.64 (μg/ml)min | 0.1011 ± 0.0425 | effective |  | t1/2(a) = half-life of absorption ([2]; rat, in vivo, po, 640 mg/kg): 0.368613 ± 0.311893 h; t1/2(β) = half-life of clearance ([2]; rat, in vivo, po, 640 mg/kg): 7.0838 ± 4.228 h |
| CC(=O)OC[C@H]1O[C@@H](c2c(OC(C)=O)ccc3c(=O)c(-c4ccc(OC(C)=O)cc4)coc23)[C@H](OC(C)=O)[C@@H](OC(C)=O)[C@@H]1OC(C)=O [Compound 6ac, Hexa-0-acetyl puerarin] | 16.33 ± 9.18 | 29.09 ± 16.50 | 39.12 ± 15.21 | 41.05 ± 15.60 | 29.14 ± 10.60 | 22.11 ± 9.81 |  |  |  | effective | two-compartment open model | AUC(0-∞) = area under concentration-time curve [2, 9]: 3149.69 ± 467.26 (μg/ml)min; C (max) = maximum concentration reached by the compound [2, 9]: 4932.4 ± 69.5 ng/mL; CL = total body clearance [2, 9]: 0.1696 ± 0.1206 mg/kg/min/µg/mL; T(peak) = time the compound takes to reach the absorption peak [2, 9]: 81.39 ± 10.02 min; t1/2(a) = half-life of absorption [2, 9]: 1.86617 ± 1.811 h; t1/2(β) = half-life of clearance [2, 9]: 44.4162 ± 6.3323 h |
| O=c1c(-c2ccc(O)cc2)coc2c([C@@H]3O[C@H](CO)[C@@H](O)[C@H](O)[C@H]3O)c(O)ccc12 [Puerarin] | 18.06 ± 10.09 | 25.69 ± 11.21 | 31.22 ± 14.59 | 39.20 ± 16.11 | 29.10 ± 16.23 | 25.01 ± 10.40 |  | 2729.94 ± 491.99 (μg/ml)min | 0.2032 ± 0.0541 | effective | two-compartment open model | half-life ([2]; both, Sprague-Dawley, rat, in vivo, po, 640 mg/kg, t1/2(a) = half-life of absorption): 0.89 ± 0.189 h; half-life ([2]; both, Sprague-Dawley, rat, in vivo, po, 640 mg/kg, t1/2(β) = half-life of clearance): 1.015 ± 0.00719 h |
